# Assay results taken from ChEMBL document CHEMBL1155170, “Rapid dissemination and diversity of CTX-M extended-spectrum beta-lactamase genes in commensal Escherichia coli isolates from healthy children from low-resource settings in Latin America” (2007).
# Experiments:
# Escherichia coli [1] = test: Antimicrobial activity against CTX-M extended-spectrum beta-lactamase producing commensal Escherichia coli isolates from healthy children assessed as percent resistant isolates by disc diffusion method; type: functional
# Escherichia coli [2] = test: Antimicrobial activity against CTX-M-15 extended-spectrum beta-lactamase producing commensal Escherichia coli isolates from healthy children assessed as percent resistant isolates by disc diffusion method; type: functional
Compound,Activity (Escherichia coli [1]) [%],Activity (Escherichia coli [2]) [%]
O=C(O)c1cn(C2CC2)c2cc(N3CCNCC3)c(F)cc2c1=O [CIPROFLOXACIN],54,93
CCn1cc(C(=O)O)c(=O)c2ccc(C)nc21 [NALIDIXIC ACID],57,93
CN(C)[C@@H]1C(O)=C(C(N)=O)C(=O)[C@@]2(O)C(O)=C3C(=O)c4c(O)cccc4[C@@](C)(O)[C@H]3C[C@@H]12 [TETRACYCLINE],86,
